Data: patent US12527774B2, “Estrogen-related receptor alpha modulators” (LEAD PHARMA HOLDING B.V., priority 2019, dated 2026)

Target: ERRα ligand binding domain (ERRα-LBD) (Homo sapiens (Human), UniProt P11474)
Assay: ERRα AlphaScreen Assay
Format: biochemical
Details: disruption of binding of ERRα-LBD protein to biotin-PGC1α-3 co-activator peptide; for IC50: read-out: mean pIC50 (converted)
Excerpt: This assay was based on the knowledge that nuclear receptors interact with cofactors in a ligand dependent matter. The sites of interaction have been mapped to LXXLL motifs that are present in the co-activator sequences. Short peptide sequences that contain the LXXLL motif mimic the behavior of full length co-activators.
The ERRα AlphaScreen Assay described here relies on the interaction of the co-activator peptide with purified bacterial-expressed ERRα ligand binding domain (ERRα-LBD); upon ligand binding the ERRα protein can undergo a conformational change resulting in a loss of co-activator binding.
Compounds of the present invention were tested for their ability to disrupt binding of ERRα-LBD protein to co-activator peptide using AlphaScreen® Technology (Perkin Elmer). ERRα-LBD protein was expressed in E. coli as a 6×His Small Ubiquitin-like Modifier (SUMO) fusion. Bacterial expressed 6His-SUMO-ERRα-LBD protein was purified using affinity chromatography. All experiments were performed at room temperature in 384-well white non-binding plates (Greiner) using 50 mM Tris-HCl pH 7.5, 100 mM NaCl, 0,1% Pluronic F-127, 0.05% BSA and 5 mM TCEP as the buffer. Final DMSO concentration was 1% in the assay. Compounds were assayed in triplicate and: incubated with 0.81 nM ERRα-LBD protein and 10 μg/mL streptavidin donor beads and 10 μg/mL Ni-chelate acceptor beads for 1 hour at room temperature; followed by a 2-hour incubation with 15 nM biotin-PGC1α-3 peptide (QRRPCSELLKYLTTNDDPP) corresponding to amino acids 202 to 220.
The AlphaScreen signal was measured using an Envision Xcite plate reader (Perkin Elmer). Data was normalized, and curve fitting analysis was performed in GraphPad Prism 7 using a four-parameter dose-response fit.
As multiple IC50 values were annotated for the same compound-protein pair, a mean pIC50 for each compound was determined.

ERRα ligand binding domain (ERRα-LBD), sequence (P11474 193-421): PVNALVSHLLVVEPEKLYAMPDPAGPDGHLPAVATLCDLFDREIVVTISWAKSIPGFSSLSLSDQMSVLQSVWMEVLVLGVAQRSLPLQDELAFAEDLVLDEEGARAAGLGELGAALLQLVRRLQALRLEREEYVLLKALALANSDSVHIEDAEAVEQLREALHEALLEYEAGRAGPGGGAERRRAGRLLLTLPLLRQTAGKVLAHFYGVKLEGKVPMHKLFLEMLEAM

| SMILES | IC50 [nM] | mean pIC50 |
| --- | --- | --- |
| COC(=O)C1C(=O)Nc2n[nH]cc2C1c1ccc(COc2ccc(C(F)(F)F)cc2C(F)(F)F)c(OC)c1 (stereo not drawn) [Example 187, methyl 4-(4-{[2,4-bis(trifluoromethyl)phenoxy]methyl}-3-methoxyphenyl)-6-oxo-2H,4H,5H,6H, 7H-pyrazolo[3,4-b]pyridine-5-carboxylate] | 100 to 1000 | – |
| COc1cc(C2CC(=O)Nc3c[nH]nc32)ccc1OCc1ccc(C(C)=O)cc1C(F)(F)F (stereo not drawn) [Example 94, 7-(4-{[4-acetyl-2-(trifluoromethyl)phenyl]methoxy}-3-methoxyphenyl)-2H,4H,5H,6H, 7H-pyrazolo[4,3-b]pyridin-5-one] | 100 to 1000 | – |
| COc1cc(C2CC(=O)Nc3ccsc32)ccc1OCc1ccccc1Cl (stereo not drawn) [Example 79, 7-{4-[(2-chlorophenyl)methoxy]-3-methoxyphenyl}-4H,5H,6H, 7H-thieno[3,2-b]pyridin-5-one] | 100 to 1000 | – |
| COc1cc(C2CC(=O)Nc3n[nH]cc32)ccc1COc1ccc(C(F)F)cc1C(F)F (single isomer, unassigned; (-)) [Example 218, (−)-4-(4-{[2,4-bis(difluoromethyl)phenoxy]methyl}-3-methoxyphenyl)-2H,4H,5H,6H,7H-pyrazolo[3,4-b]pyridin-6-one] | – | ≥ 8 |
| COc1cc(C2CC(=O)Nc3n[nH]cc32)ccc1OCc1ccccc1C(=O)OC(C)C (stereo not drawn) [Example 127, propan-2-yl 2-(2-methoxy-4-{6-oxo-2H,4H,5H,6H,7H-pyrazolo[3,4-b]pyridin-4-yl}phenoxymethyl)benzoate] | 100 to 1000 | – |
| COc1ccc(COc2ccc(C3CC(=O)Nc4[nH]nnc43)cc2OC)c(C(F)(F)F)c1 (single isomer, unassigned; (+)) [Example 201, (+)-7-(3-methoxy-4-{[4-methoxy-2-(trifluoromethyl)phenyl]methoxy}phenyl)-3H,4H,5H,6H,7H-[1,2,3]triazolo[4,5-b]pyridin-5-one] | 10 to 100 | – |
| COc1cc(C2CC(=O)Nc3n[nH]cc32)ccc1OCc1ccc([N+](=O)[O-])cc1C(F)(F)F (stereo not drawn) [Example 34, 4-(3-methoxy-4-{[4-nitro-2-(trifluoromethyl)phenyl]methoxy}phenyl)-2H,4H,5H,6H,7H-pyrazolo[3,4-b]pyridin-6-one] | 10 to 100 | – |
| COc1cc(C2CC(=O)Nc3n[nH]cc32)ccc1OCc1ccccc1OC(F)F (stereo not drawn) [Example 17, 4-(4-{[2-(difluoromethoxy)phenyl]methoxy}-3-methoxyphenyl)-2H,4H,5H,6H,7H-pyrazolo[3,4-b]pyridin-6-one] | 10 to 100 | – |
| COc1cc(C2CC(=O)Nc3n[nH]cc32)ccc1OCc1cc2c(cc1Br)OCO2 (stereo not drawn) [Example 43, 4-{4-[(6-bromo-2H-1,3-benzodioxol-5-yl)methoxy]-3-methoxyphenyl}-2H,4H,5H,6H, 7H-pyrazolo[3,4-b]pyridin-6-one] | 10 to 100 | – |
| COc1cc(C2CC(=O)Nc3n[nH]cc32)ccc1OCc1ccccc1[N+](=O)[O-] (stereo not drawn) [Example 18, 4-{3-methoxy-4-[(2-nitrophenyl)methoxy]phenyl}-2H,4H,5H,6H, 7H-pyrazolo[3,4-b]pyridin-6-one] | 100 to 1000 | – |
| COc1cc(C2CC(=O)Nc3n[nH]cc32)ccc1COc1ccc(C)cc1C(F)(F)F (single isomer, unassigned; (+)) [Example 213, (+)-4-(3-methoxy-4-{[4-methyl-2-(trifluoromethyl)phenoxy]methyl}phenyl)-2H,4H,5H,6H,7H-pyrazolo[3,4-b]pyridin-6-one] | 10 to 100 | – |
| O=C1CC(c2cnc(OCc3ccccc3C(F)(F)F)nc2)c2c[nH]nc2N1 (stereo not drawn) [Example 165, 4-(2-{[2-(trifluoromethyl)phenyl]methoxy}pyrimidin-5-yl)-2H,4H,5H,6H, 7H-pyrazolo[3,4-b]pyridin-6-one] | 100 to 1000 | – |
| O=C1CC(c2ccc(COc3ccc(C(F)(F)F)cc3C(F)(F)F)c(OC(F)(F)F)c2)c2c[nH]nc2N1 (stereo not drawn) [Example 109, 4-(4-{[2,4-bis(trifluoromethyl)phenoxy]methyl}-3-(trifluoromethoxy)phenyl)-2H,4H,5H,6H,7H-pyrazolo[3,4-b]pyridin-6-one] | 10 to 100 | – |
| O=C1CC(c2ccc(OCc3ccccc3C(F)(F)F)c([N+](=O)[O-])c2)c2c[nH]nc2N1 (stereo not drawn) [Example 67, 4-(3-nitro-4-{[2-(trifluoromethyl)phenyl]methoxy}phenyl)-2H,4H,5H,6H,7H-pyrazolo[3,4-b]pyridin-6-one] | 100 to 1000 | – |
| COc1cc(C2CC(=O)Nc3n[nH]cc32)ccc1OCc1cc(Cl)cc(Cl)c1Cl (stereo not drawn) [Example 31, 4-{3-methoxy-4-[(2,3,5-trichlorophenyl)methoxy]phenyl}-2H,4H,5H,6H,7H-pyrazolo[3,4-b]pyridin-6-one] | 100 to 1000 | – |
| O=C1CC(c2ccc(OCc3ccccc3C(F)(F)F)c(C(=O)Nc3nnc[nH]3)c2)c2c[nH]nc2N1 (stereo not drawn) [Example 131, 5-{6-oxo-2H, 4H,5H, 6H, 7H-pyrazolo[3,4-b]pyridin-4-yl}-N-(4H-1,2,4-triazol-3-yl)-2-{[2-(trifluoromethyl)phenyl]methoxy}benzamide] | 100 to 1000 | – |
| COc1ccccc1COc1ccc(-c2cc(=O)[nH]c3n[nH]cc23)cc1OC [Example 171, 4-{3-methoxy-4-[(2-methoxyphenyl)methoxy]phenyl}-2H,6H, 7H-pyrazolo[3,4-b]pyridin-6-one] | 10 to 100 | – |
| COc1cc(C2CC(=O)Nc3n[nH]cc32)ccc1OCc1cccc(OC)c1OC (stereo not drawn) [Example 39, 4-{4-[(2,3-dimethoxyphenyl)methoxy]-3-methoxyphenyl}-2H,4H,5H,6H,7H-pyrazolo[3,4-b]pyridin-6-one] | 100 to 1000 | – |
| COc1cc(C2CC(=O)Nc3ccsc32)ccc1OCc1ccccc1C(F)(F)F (stereo not drawn) [Example 85, 7-(3-methoxy-4-{[2-(trifluoromethyl)phenyl]methoxy}phenyl)-4H,5H,6H, 7H-thieno[3,2-b]pyridin-5-one] | 10 to 100 | – |
| COc1cc(C2CC(=O)Nc3n[nH]cc32)ccc1COc1ccc(C(F)F)cc1C(F)F (single isomer, unassigned; (+)) [Example 217, (+)-4-(4-{[2,4-bis(difluoromethyl)phenoxy]methyl}-3-methoxyphenyl)-2H,4H,5H,6H,7H-pyrazolo[3,4-b]pyridin-6-one] | 100 to 1000 | – |
| C#Cc1ccccc1COc1ccc(C2CC(=O)Nc3n[nH]cc32)cc1OC (stereo not drawn) [Example 44, 4-{4-[(2-ethynylphenyl)methoxy]-3-methoxyphenyl}-2H,4H,5H,6H,7H-pyrazolo[3,4-b]pyridin-6-one] | 10 to 100 | – |
| COc1cc(C2CC(=O)Nc3n[nH]cc32)ccc1OCc1ccc(N)cc1C(F)(F)F (stereo not drawn) [Example 135, 4-(4-{[4-amino-2-(trifluoromethyl)phenyl]methoxy}-3-methoxyphenyl)-2H,4H,5H,6H, 7H-pyrazolo[3,4-b]pyridin-6-one] | – | ≥ 8 |
| COc1cc(C2CC(=O)N(C)c3n[nH]cc32)ccc1OCc1ccccc1C(F)(F)F (stereo not drawn) [Example 86, 4-(3-methoxy-4-{[2-(trifluoromethyl)phenyl]methoxy}phenyl)-7-methyl-2H,4H,5H,6H,7H-pyrazolo[3,4-b]pyridin-6-one] | 100 to 1000 | – |
| COc1cc(C2CC(=O)Nc3n[nH]cc32)ccc1OCc1c(F)cccc1C(F)(F)F (stereo not drawn) [Example 21, 4-(4-{[2-fluoro-6-(trifluoromethyl)phenyl]methoxy}-3-methoxyphenyl)-2H,4H,5H,6H,7H-pyrazolo[3,4-b]pyridin-6-one] | 100 to 1000 | – |
| COC(=O)c1ccc(COc2ccc(C3CC(=O)Nc4n[nH]cc43)cc2OC)c(C(F)(F)F)c1 (stereo not drawn) [Example 42, methyl 4-[(2-methoxy-4-{6-oxo-2H,4H,5H,6H,7H-pyrazolo[3,4-b]pyridin-4-yl}phenoxy)methyl]-3-(trifluoromethyl)benzoate] | – | ≥ 8 |
| COc1cc(C2CC(=O)Nc3c[nH]cc32)ccc1COc1ccc(C(F)(F)F)cc1C(F)(F)F (stereo not drawn) [Example 190, 4-(4-{[2,4-bis(trifluoromethyl)phenoxy]methyl}-3-methoxyphenyl)-1H,2H,3H,4H, 6H-pyrrolo[3,4-b]pyridin-2-one] | 10 to 100 | – |
| COc1cc(C2CC(=O)Nc3n[nH]cc32)ccc1OCc1ccccc1C(F)F (stereo not drawn) [Example 49, 4-(4-{[2-(difluoromethyl)phenyl]methoxy}-3-methoxyphenyl)-2H,4H,5H,6H, 7H-pyrazolo[3,4-b]pyridin-6-one] | 100 to 1000 | – |
| COc1cc(C2CC(=O)Nc3n[nH]cc32)ccc1OCc1ccccc1Br (stereo not drawn) [Example 4, 4-{4-[(2-bromophenyl)methoxy]-3-methoxyphenyl}-2H,4H,5H,6H, 7H-pyrazolo[3,4-b]pyridin-6-one] | 10 to 100 | – |
| COCCOc1cc(C2CC(=O)Nc3n[nH]cc32)ccc1OCc1ccccc1C(F)(F)F (stereo not drawn) [Example 164, 4-[3-(2-methoxyethoxy)-4-{[2-(trifluoromethyl)phenyl]methoxy}phenyl]-2H,4H,5H,6H, 7H-pyrazolo[3,4-b]pyridin-6-one] | 10 to 100 | – |
| COc1cc(C2CC(=O)Nc3n[nH]c(C)c32)ccc1OCc1ccccc1C(F)(F)F (stereo not drawn) [Example 82, 4-(3-methoxy-4-{[2-(trifluoromethyl)phenyl]methoxy}phenyl)-3-methyl-2H,4H,5H,6H,7H-pyrazolo[3,4-b]pyridin-6-one] | 100 to 1000 | – |
